Results taken from US7795332B2, “Method of removing fluorinated carboxylic acid from aqueous liquid” (priority 2005, dated 2010).
Marks after values point to notes of the source that are not given here.

Experiment: Determination of bio-accumulation: urinary clearance pharmacokinetic study in rats
Conditions: for T½: renal elimination half-life, urine by fluorine NMR, exponential curve fitting; for Compound-related Effects: 73 micro Moles per kg oral gavage, clinical signs and gross necropsy 96 hours post-dose
[1] = recovery of administered amount in urine after 96 h, 73 micro Moles per kg, oral gavage
[2] = 73 micro Moles per kg, oral gavage
[3] = no parent compound in urine, based on elimination of the major metabolite C3F7-O-CHFCOO-, 73 micro Moles per kg, oral gavage

Row | % Recovery (96 h) [1] | T½ [2] | % Recovery (96 h) [3] | T½ (h) [3] | SMILES | Compound-related Effects
1 | 100% | 10 h | – | – | N.O=C(O)C(F)(F)C(F)(F)OC(F)(F)C(F)(F)F [Compound 7, C2F5—O—CF2—CF2—COONH4] | –
2 | 84% | 12 h | – | – | N.O=C(O)C(F)(F)C(F)OC(F)(F)C(F)(F)C(F)(F)OC(F)(F)F (stereo not shown) [Compound 11, CF3—O—CF2—CF2—CF2—O—CHF—CF2—COONH4] | –
3 | 95% | 11 h | – | – | N.O=C(O)C(F)OC(F)(F)C(F)(F)C(F)(F)OC(F)(F)F (stereo not shown) [Compound 12, CF3—O—CF2—CF2—CF2—O—CHF—COONH4] | –
4 | 94% | 11 h | – | – | N.O=C(O)C(F)(F)C(F)OC(F)(F)C(F)(F)C(F)(F)F (stereo not shown) [Compound 13, C3F7—O—CFH—CF2COONH4] | –
5 | 32% | 24 h | – | – | N.O=C(O)C(F)(F)C(F)(F)C(F)(F)C(F)(F)C(F)(F)OC(F)C(F)(F)F (stereo not shown) [Compound 14, CF3—CFH—O—(CF2)5—COONH4] | Hepatomegaly
6 | 95% | 8 h | – | – | N.O=C(O)C(F)(F)C(F)(F)C(F)(F)OC(F)C(F)(F)F (stereo not shown) [Compound 15, CF3—CFH—O—(CF2)3—COONH4] | –
7 | – | – | 65* % | 13* h | N.O=C(O)COC(F)(F)C(F)OC(F)(F)C(F)(F)C(F)(F)F (stereo not shown) [Compound 16, C3F7—O—CFH—CF2—O—CH2—COONH4] | –

Second part, the compound before the results:

Row | SMILES | % Recovery (96 h) [1] | T½ [2] | % Recovery (96 h) [3] | T½ (h) [3] | Compound-related Effects
8 | N.O=C(O)C(F)(F)OC(F)(F)C(F)(F)C(F)(F)OC(F)(F)F [Compound 1, CF3—O—(CF2)3—O—CF2—COONH4] | 73% | – | – | – | –
9 | N.O=C(O)C(F)(F)OC(F)(F)OC(F)(F)F [Compound 2, CF3—OCF2—O—CF2—COONH4] | 96% | 12 h | – | – | –
10 | N.O=C(O)C(F)(F)OC(F)(F)OC(F)(F)OC(F)(F)F [Compound 3, CF3—OCF2—OCF2—OCF2—COONH4] | 100% | 12 h | – | – | –
11 | N.O=C(O)C(F)(F)OC(F)(F)C(F)(F)C(F)(F)OC(F)(F)F [Compound 4, CF3—(OCF2)3—OCF2—COONH4] | 50% | – | – | – | –
12 | N.O=C(O)C(F)(F)C(F)(F)OC(F)(F)F [Compound 6, CF3—O—CF2—CF2—COONH4] | 100% | 11 h | – | – | –
13 | N.O=C(O)C(F)(F)C(F)(F)OC(F)(F)C(F)(F)C(F)(F)F [Compound 8, C3F7—O—CF2—CF2—COONH4] | 82% | 12 h | – | – | –
14 | N.O=C(O)C(F)(F)C(F)(F)OC(F)(F)C(F)(F)C(F)(F)C(F)(F)F [Compound 9, C4F9—O—CF2—CF2—COONH4] | 42% | 31 h | – | – | Hepatomegaly
15 | N.O=C(O)C(F)(F)C(F)(F)C(F)(F)C(F)(F)C(F)(F)C(F)(F)C(F)(F)F [Compound C-1, C7F15COONH4, reference compound] | 6% | ~550 h | – | – | Hepatomegaly
16 | N.O=C(O)C(F)(F)OC(F)(F)C(F)(OC(F)(F)C(F)(F)C(F)(F)F)C(F)(F)F (stereo not shown) [Compound C-3, CF3CF2CF2OCF(CF3)CF2OCF2COONH4, reference compound] | 5% | 95 h | – | – | Hepatomegaly
